Assay results published in PMC11795529, “Simulation of Antral Conditions for Estimating Drug Apparent Equilibrium Solubility after a High-Calorie, High-Fat Meal” (Molecular Pharmaceutics, 2025).
In brackets after ≈: the same amount, converted by molar mass. Several values for one entry are separate records, joined by “and”; a condition that tells them apart may be missing. Equal entries are not always repeated. Where two headings read alike, the source gives them in different places.

What was measured:
[1] = cited from earlier work
[2] = cited from earlier work; for Ketoconazole Concentration, Mean: three samples
[3] = Shake-flask apparent equilibrium solubility in pooled human antral aspirates (HGFfed) collected after a high-calorie, high-fat meal and water; assay type: physicochemical; conditions: pooled antral (gastric) aspirates, fed state
[4] = Shake-flask apparent equilibrium solubility in biorelevant media (FeSSGF-V2, FEDGAS pH 3, FeSSGF-V3); assay type: physicochemical
Experimental: Biorelevant media were prepared on the day of the solubility measurements.
FEDGAS1/2 pH = 3 (Level II biorelevance[5]) was prepared as FEDGAS pH = 3 but with half the amount of FEDGASgel, i.e., by using 7.65 g of FEDGASgel/90 mL.
FEDGAS1/4 pH = 3 (Level II biorelevance[5]) was prepared as FEDGAS pH = 3 but with 1/4 of the amount of FEDGASgel, i.e., by using 3.825 g of FEDGASgel/90 mL.
FEDGASbuffer pH = 3 (Level I biorelevance[5]) was prepared by diluting FEDGAS buffer concentrate with distilled water, as indicated in Table 3.
In Level III FeSSGF-V3, the presence of proteins was simulated using Régilait Skimmed Milk Powder. The high-calorie, high-fat meal consists of up to about 1000 kcal and ≈15% of the total amount of calories is derived from proteins.[15],[16] If 1 g of protein corresponds to 4 kcal, then the meal contains up to about 37 g of proteins. Based on phenol red data, after a high-calorie, high-fat meal and a glass of water 30 min after initiation of meal intake, the impact of resting gastric contents/swallowed saliva/gastric secretions on the dilution of antral contents is substantial; however, dilution of contents occurs predominantly during meal administration.[8] Specifically, when 100 mg of phenol red was included in the meal, the mean phenol red concentration in the antrum fluctuated around 0.06 mg/mL for at least 3 h after initiation of meal administration.[6] It can, therefore, be assumed that the protein concentration in the antral region would be about 37 g × (0.06 mg/mL/100 mg) = 0.0222 g/mL ≈ 22 mg/mL. Since Régilait contains 36% w/w proteins, Régilait Skimmed Milk Powder 6.1% w/v in medium is equivalent to 2.196% (w/v) protein concentration, i.e., ≈ 22 mg/mL.

[5] = Level III FeSSGF-V3HCl and HGFfed15 sample, 37 °C, shake-flask
[6] = parameters: method as in PMID 19644845; conditions: cited from earlier work
[7] = physchem; conditions: for solubility thermodynamic at 4 h: human, pooled antral (gastric) aspirates, fed state, thermodynamic from solid; for solubility: simple aqueous solution

Compound: C#C[C@]1(O)CC[C@H]2[C@@H]3CCC4=Cc5oncc5C[C@]4(C)[C@H]3CC[C@@]21C [Danazol]
- logP [1]: 4.53
- Danazol Concentration ([2]; Level II FeSSIF, 1st filtration, samples 1, 2, 3 in order): 26.61 µg/mL and 26.22 µg/mL and 26.44 µg/mL
- Danazol Concentration ([2]; Level II FeSSIF, 2nd filtration, samples 1, 2, 3 in order): 26.34 µg/mL and 25.39 µg/mL and 25.44 µg/mL
- adsorption on regenerated cellulose filter ([2]; Level II FeSSIF): negligible adsorption
- % adsorbed ([2]; Level II FeSSIF, samples 1, 2, 3 in order): 1.04% and 3.18% and 3.78%

Compound: CC(=O)N1CCN(c2ccc(OCC3COC(Cn4ccnc4)(c4ccc(Cl)cc4Cl)O3)cc2)CC1 (stereo not drawn) [Ketoconazole]
- solubility at 4 h ([3]; 37 °C, plasma or biological fluid, thermodynamic from solid, from the four mean values in HGFfed45, 75, 105, 135, read-out: grand mean apparent solubility in HGFfed): 2290 µg/mL (≈ 4.31 mM)
- solubility thermodynamic at 4 h ([3]; HGFfed45, 75, 105, 135, 37 °C, 4 h, mean(SD), read-out: mean apparent equilibrium solubility in pooled aspirates, range over the four HGFfed samples): 770 to 3670 µg/mL (≈ 1.45 to 6.91 mM)
- times higher than the point estimate of intragastric solubility ([4]; FEDGAS1/2 pH = 3 and FEDGAS1/4 pH = 3 vs 3 mg/mL): more than 1.6 times
- times higher than the point estimate of intragastric solubility ([4]; FEDGAS pH = 3 vs 3 mg/mL): more than 2.5 times
- percent higher than the point estimate for intragastric solubility ([4]; FEDGASbuffer pH 3 vs 3 mg/mL): 50%
- percent lower than the point estimate for intragastric solubility ([4]; Level I FeSSGF-V2 vs 3 mg/mL): 30%
- solubility thermodynamic at 4 h ([4]; Level I FeSSGF-V3acetates, pH 3, Level I FeSSGF-V3acetates, initial pH 3, pHeq 3.7): 3200 µg/mL (≈ 6.02 mM)
- percent lower than the point estimate for intragastric solubility ([4]; Level II FeSSGF-V2 vs 3 mg/mL): more than 40%
- solubility thermodynamic at 4 h ([4]; Level II FeSSGF-V3acetates, pH 3, Level II FeSSGF-V3acetates, initial pH 3, pHeq 3.7): 3450 µg/mL (≈ 6.49 mM)
- solubility thermodynamic at 4 h ([4]; Level III FeSSGF-V3HCl, pH 3, Level III FeSSGF-V3HCl, initial pH 3, pHeq 3.8): 3730 µg/mL (≈ 7.02 mM)
- percent higher than the estimated point solubility in antral contents ([4]; Level III FeSSGF-V3 prepared with hydrochloric acid): 24%
- solubility thermodynamic at 4 h ([4]; biorelevant medium, 37 °C, pH 3, fassgf or other biorelevant, thermodynamic from solid, FEDGAS1/2 pH = 3 (Level II), mean(SD), n = 3): 5650 µg/mL (≈ 10.6 mM)
- solubility thermodynamic at 4 h ([4]; biorelevant medium, 37 °C, pH 3, fassgf or other biorelevant, thermodynamic from solid, FEDGAS1/4 pH = 3 (Level II), mean(SD), n = 3): 5070 µg/mL (≈ 9.54 mM)
- solubility thermodynamic at 4 h ([4]; biorelevant medium, 37 °C, pH 3, fassgf or other biorelevant, thermodynamic from solid, FEDGAS pH = 3 (Level II), mean(SD), n = 3): 7570 µg/mL (≈ 14.2 mM)
- solubility thermodynamic at 4 h ([4]; biorelevant medium, 37 °C, pH 3, fassgf or other biorelevant, thermodynamic from solid, Level II FeSSGF-V2, pH 3, mean(SD), n = 3): 1640 µg/mL (≈ 3.08 mM)
- solubility thermodynamic at 4 h ([4]; biorelevant medium, pH 3, FEDGASbuffer pH 3 (Level I), mean(SD), n = 3): 4600 µg/mL (≈ 8.66 mM)
- solubility thermodynamic at 4 h ([4]; biorelevant medium, pH 3, Level I FeSSGF-V2, pH 3, mean(SD), n = 3): 2140 µg/mL (≈ 4.03 mM)
- aqueous solubility at pHeq as share of measured apparent solubility (HGFfed45): 21%
- aqueous solubility at pHeq as share of measured apparent solubility (HGFfed75): 22%
- aqueous solubility at pHeq as share of measured apparent solubility (HGFfed105): 18%
- aqueous solubility at pHeq as share of measured apparent solubility (HGFfed135): 18%
- incubation time within which equilibrium is achieved [5]: ≤ 4 h
- intrinsic aqueous solubility [1]: ≈ 2 μg/mL
- apparent solubility in human antral fluids ([6]; 30 min after 500 mL Ensure Plus, pHeq 5.7): 0.63 mg/mL
- apparent solubility in human antral fluids ([6]; 60 min after 500 mL Ensure Plus, pHeq 5.1): 3.15 mg/mL
- apparent solubility in human antral fluids ([6]; 120 min after 500 mL Ensure Plus, pHeq 4.9): 4.7 mg/mL
- adsorption on regenerated cellulose filter ([2]; aqueous buffers pH 3.5 to 5): negligible adsorption
- Ketoconazole Concentration, Mean ([2]; pH 3.5, 1st filtration): 2.8763 mg/mL
- Ketoconazole Concentration, Mean ([2]; pH 3.5, 2nd filtration): 2.8250 mg/mL
- % adsorbed ([2]; pH 3.5): 1.63%
- Ketoconazole Concentration, Mean ([2]; pH 4.0, 1st filtration): 0.9297 mg/mL
- Ketoconazole Concentration, Mean ([2]; pH 4.0, 2nd filtration): 0.9288 mg/mL
- % adsorbed ([2]; pH 4.0): 0.23%
- Ketoconazole Concentration, Mean ([2]; pH 5.0, 1st filtration): 0.0825 mg/mL
- Ketoconazole Concentration, Mean ([2]; pH 5.0, 2nd filtration): 0.0775 mg/mL
- % adsorbed ([2]; pH 5.0): 6.16%
- solubility thermodynamic ([7]; aqueous phase, pH 3.7): 1290 µg/mL (≈ 2.43 mM)
- solubility thermodynamic at 4 h ([7]; pH 4, plasma or biological fluid): 3000 µg/mL (≈ 5.65 mM)
- solubility thermodynamic at 4 h ([7]; pH 4.1, plasma or biological fluid): 2340 µg/mL (≈ 4.4 mM)
- solubility thermodynamic at 4 h ([7]; pH 4.2, plasma or biological fluid): 1470 µg/mL (≈ 2.77 mM)
- solubility thermodynamic at 4 h ([7]; pH 4.6, plasma or biological fluid): 610 µg/mL (≈ 1.15 mM)
- solubility thermodynamic at 4 h ([7]; plasma or biological fluid): 1850 µg/mL (≈ 3.48 mM)
- solubility ([7]; pH 4): 650 µg/mL (≈ 1.22 mM)
- solubility ([7]; pH 4.1): 520 µg/mL (≈ 0.978 mM)
- solubility ([7]; pH 4.2): 410 µg/mL (≈ 0.771 mM)
- solubility ([7]; pH 4.6): 170 µg/mL (≈ 0.32 mM)
